Experimental findings from publication PMC11486130, “Structure-guided discovery of novel dUTPase inhibitors with anti-Nocardia activity by computational design” (Journal of Enzyme Inhibition and Medicinal Chemistry, 2024) are described below.

Values after ≈ are worked out from the molar mass of the structure shown. Like-named read-outs stand apart in the source and are kept apart here. Bounds are passed on as bounds.

In one series the target is T1, NsdUTPase WT (Nocardia seriolae, UniProt A0ABF7PKI9).
T1 sequence (A0ABF7PKI9 1-166): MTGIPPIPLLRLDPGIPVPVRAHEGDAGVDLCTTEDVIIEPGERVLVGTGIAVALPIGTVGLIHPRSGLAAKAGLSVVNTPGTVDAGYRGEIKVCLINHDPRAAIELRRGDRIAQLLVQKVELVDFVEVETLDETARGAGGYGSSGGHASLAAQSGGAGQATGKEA
Description: Kd to WT NsdUTPase. The series is classed as binding, N. seriolae.

A short description of series [1]: Cytotoxicity, CCK-8 assay. The series is classed as cell-based. To be noted: concentration 30 µM (about 10.0 mg/L), read-out: cell viability. The protocol: The cytotoxicity of compounds 4b and 12b was determined by CCK-8 assay. A549 and Marc cells were cultured for the test. Concentrations of compounds varied from 0.03 to 30 µM. Meanwhile, 1% DMSO was used as a negative control. After incubation for 24 h, WST-8 was added. The experimental method referred to the kit instructions. All the experiments were repeated three times.
In general terms: Tetrazolium assays rely on reduction of a dye to a coloured formazan, in cell work by metabolically active cells.

For a further series, the target named is NsdUTPase (Nocardia seriolae, UniProt A0ABF7PKI9). Description: NsdUTPase activity assay (PPi Light inorganic pyrophosphate assay kit). It counts as biochemical. Conditions: for activity improvement: NsdUTPase IC50 compared with F0414. As for the experimental part: The in vitro catalytic activity of NsdUTPase was detected by a PPi Light inorganic pyrophosphate assay kit following manufactory’s manual. […] After 120 min of incubation at room temperature, the luminescence intensity of the reaction was measured by a microplate luminometer at 560 nm.
IC50 was determined using GraphPad Prism software 9 (GraphPad Software, San Diego, CA). All experiments were performed in triplicate, and values (±standard deviations [SD]) are shown. Significant differences were determined using Student’s t-test. *p < 0.05 (considered significant compared with control group); **p < 0.01 (considered highly significant); ***p < 0.001 (considered extremely significant).

Series [2] concerns N. salmonicida strain JCM4826. Description: anti-Nocardia activity, microplate alamar blue assay (MABA). Conditions: two days at 25 °C; for MIC: 48 h. The series is classed as cell-based. The protocol: (§1) The MABA method was used to determine the anti-Nocardia activity of compounds according to reported method[34] with modification. N. seriolae strain JCM3360, and N. salmonicida strain JCM4826 were gifted from Prof. Nien, Chung-Yi (National Central University, Taoyuan City, Taiwan), and cultured in M-196 medium (0.4% yeast extract; 1% malt extract; 0.4% dextrose) at 25 °C. Two strains were inoculated into 96-well plates at a concentration of ×10^6 CFU/mL and cultured in the medium, then different concentrations of compounds were added. After two days of incubation at 25 °C, the mixture of 20 μL 10× alamar blue and 50 μL 5% Tween-80 were added to observe the colour change. Minimum inhibitory concentration (MIC) is defined as the minimum compound concentration of the well varying from blue to pink.
Background: Resazurin is reduced to fluorescent resorufin, in cell work by metabolically active cells.

The subject of series [3] is N. seriolae strain JCM3360. The series is described as above. The series is classed as cell-based. To be noted: two days at 25 °C; for MIC: 48 h. The protocol: as §1
Setting [4] is: African green monkey, Marc cells.
[5] abbreviates: in vitro enzyme inhibitory activity, read-out: IC50 against NsdUTPase.

`C=CCn1c(-c2ccc(Oc3ccccc3)cc2)nc2cc(C)ccc21` [12b, 1-Allyl-5-methyl-2-(4-phenoxyphenyl)-1H-benzo[d]imidazole]: at NsdUTPase WT, the equilibrium dissociation constant (Kd) is 7.49 µM. Besides, the viability at 24 h, 30 µM in series [1] (setting [4]) is greater than 70%; in series [1] (human, A549 cells) it was greater than 70%. The same compound came in with an IC50 on NsdUTPase of 0.7 µM. At NsdUTPase, the activity improvement entry was “more than 20 fold”. For the same compound, the MIC in series [2] is 1 mg/L (≈ 2.94 µM); in series [3], 2 mg/L (≈ 5.87 µM).
In the case of `C=CCn1c(/C=C/c2ccccc2)nc2ccccc21` [F0414, (E)-1-Allyl-2-styryl-1H-benzo[d]imidazole, reference compound], the IC50 on NsdUTPase (setting [5]) was greater than 20 µM. The MIC is 2 mg/L (≈ 7.68 µM) in series [2] and 8 mg/L (≈ 30.7 µM) in series [3].
Taken in the same sequence, the figures for `C=CCn1c(/C=C/c2ccc(N(C)C)cc2)nc2ccccc21` [4g, (E)-4-(2-(1-Allyl-1H-benzo[d]imidazol-2-yl)vinyl)-N,N-dimethylaniline] were 2.98 µM, 16 mg/L (≈ 52.7 µM) and greater than 50 mg/L.
The like results for `C=CCn1c(-c2ccc3ccccc3c2)nc2ccccc21` [8e, 1-Allyl-2-(naphthalen-2-yl)-1H-benzo[d]imidazole] were, in that order, 10.5 µM, 4 mg/L (≈ 14.1 µM) and 4 mg/L (≈ 14.1 µM).
Regarding “1-(Cyclopropylmethyl)-2-(4-phenoxyphenyl)-5-(trifluoromethyl)-1H-benzo[d]imidazole [12f]”, the IC50 at NsdUTPase (setting [5]) is greater than 20 µM. In series [2], the “MIC N. salmonicida” value was 8 mg/L. Further, in series [3], the “MIC N. seriolae” value is 16 mg/L.
For `C=CCn1c(-c2cccc(Oc3ccccc3)c2)nc2ccccc21` [8d, 1-Allyl-2-(3-phenoxyphenyl)-1H-benzo[d]imidazole], on NsdUTPase (setting [5]), the IC50 turned out to be 15.7 µM. Besides, the MIC in series [2] was 32 mg/L (≈ 98 µM); in series [3], greater than 50 mg/L.
For the compound `C=CCn1c(/C=C/c2ccccc2OC)nc2cc(C(=O)c3ccccc3)ccc21` [4i, (E)-(1-Allyl-2-(2-methoxystyryl)-1H-benzo[d]imidazol-5-yl)(phenyl)methanone], the concentration for half-maximal inhibition (IC50) on NsdUTPase (setting [5]) came out at 7.54 µM. The minimum inhibitory concentration (MIC) in series [2] amounted to 4 mg/L (≈ 10.1 µM); in series [3], 8 mg/L (≈ 20.3 µM).
Turning to `CS(=O)(=O)c1ccc([C@@H](O)[C@@H](CF)NC(=O)C(Cl)Cl)cc1` [Florfenicol, reference compound], the MIC in series [2] was determined as 16 mg/L (≈ 44.7 µM); in series [3], 4 mg/L (≈ 11.2 µM).
Consider `COc1cc(NS(=O)(=O)c2ccc(N)cc2)nc(OC)n1` [Sulfadimethoxine, reference compound], for which 12.5 mg/L (≈ 40.3 µM) was the least that counted as inhibitory in series [2] (MIC). Moreover, in series [3], the minimum inhibitory concentration (MIC) is greater than 50 mg/L and the “MIC N. seriolae” value is on record as greater than 50 mg/L.
As for `C=CCn1c(-c2ccc(Oc3cccnc3)cc2)nc2cc(C(F)(F)F)ccc21` [12g, 1-Allyl-2-(4-(pyridin-3-yloxy)phenyl)-5-(trifluoromethyl)-1H-benzo[d]imidazole], at NsdUTPase (setting [5]), the 50% inhibitory concentration (IC50) was greater than 20 µM. Further, the minimal inhibitory concentration (MIC) in series [2] was 32 mg/L (≈ 80.9 µM); in series [3] it was greater than 50 mg/L.
With “(E)-1-Allyl-2-styryl-1H-benzo[d]imidazole [4c]”, the IC50 on NsdUTPase (setting [5]) amounted to 3.78 µM. The “MIC N. salmonicida” value in series [2] stood at 16 mg/L. The “MIC N. seriolae” value in series [3] is recorded as greater than 50 mg/L.
The like results for “(E)-1-Allyl-2-styryl-1H-benzo[d]imidazole [4a]” were, in that order, 2.65 µM, 2 mg/L and 4 mg/L.
In the case of `C#CCn1c(-c2ccc(Oc3ccccc3)cc2)nc2cc(C(F)(F)F)ccc21` [12e, 2-(4-Phenoxyphenyl)-1-(prop-2-yn-1-yl)-5-(trifluoromethyl)-1H-benzo[d]imidazole], at NsdUTPase (setting [5]), the IC50 was 14.8 µM. Besides, the MIC in series [2] worked out at 16 mg/L (≈ 40.8 µM); in series [3], 32 mg/L (≈ 81.6 µM).
For `CN(C)[C@@H]1C(O)=C(C(N)=O)C(=O)[C@@]2(O)C(O)=C3C(=O)c4c(O)cccc4[C@@](C)(O)[C@H]3[C@H](O)[C@@H]12` [Oxytetracycline, reference compound], the MIC in series [2] was determined as 4 mg/L (≈ 8.69 µM); in series [3], 1 mg/L (≈ 2.17 µM).
As to `C=CCn1c(-c2ccc(-c3ccccc3)cc2)nc2ccccc21` [8b, 2-([1,1′-Biphenyl]-4-yl)-1-allyl-1H-benzo[d]imidazole], the MIC in series [2] and in series [3] was 4 mg/L (≈ 12.9 µM) each time.
Turning to “(E)-1-Allyl-2-styryl-1H-benzo[d]imidazol-5-yl acetate [4f]”, at NsdUTPase (setting [5]), the 50% inhibitory concentration (IC50) turned out to be 18.3 µM. In addition, the “MIC N. salmonicida” value in series [2] turned out to be 32 mg/L. Moreover, the “MIC N. seriolae” value in series [3] is recorded as greater than 50 mg/L.
For `C=CCn1c(-c2ccc(Oc3ccccc3)cc2)nc2cc(C(F)(F)F)ccc21` [12a, 1-Allyl-2-(4-phenoxyphenyl)-5-(trifluoromethyl)-1H-benzo[d]imidazole], on NsdUTPase (setting [5]), the IC50 stood at 8.36 µM. The MIC is 16 mg/L (≈ 40.6 µM) in series [2] and greater than 50 mg/L in series [3].
As for `C=CCn1c(/C=C/c2ccccc2)nc2cc(C(F)(F)F)ccc21` [4b, (E)-1-Allyl-2-styryl-5-(trifluoromethyl)-1H-benzo[d]imidazole], the dissociation constant (Kd) at NsdUTPase WT was determined as 10.3 µM. The viability at 24 h, 30 µM in series [1] (setting [4]) was greater than 70%; in series [1] (human, A549 cells), greater than 70%. Besides, the half-inhibitory concentration (IC50) against NsdUTPase was found to be 0.99 µM. On NsdUTPase, the activity improvement result is listed as “more than 20 fold”. Further, the MIC amounted to 0.5 mg/L (≈ 1.52 µM) in series [2] and 1 mg/L (≈ 3.05 µM) in series [3].
Regarding `C=CCn1c(-c2ccc(Oc3ccccc3)cc2)nc2ccccc21` [8a, 1-Allyl-2-(4-phenoxyphenyl)-1H-benzo[d]imidazole], the IC50 on NsdUTPase (setting [5]) came to 2.61 µM. Moreover, the MIC in series [2] and in series [3] was 4 mg/L (≈ 12.3 µM) each time.
Consider `Cc1ccnc(NS(=O)(=O)c2ccc(N)cc2)n1` [Sulfamerazin, reference compound], for which, in series [2], the “MIC N. salmonicida” value is reported as greater than 50 mg/L. The “MIC N. seriolae” value in series [3] and in series [3] (listed as sulfamerazin) was greater than 50 mg/L each time.
Take `C=CCn1c(/C(C)=C/c2ccccc2)nc2ccccc21` [8c, (E)-1-Allyl-2-(1-phenylprop-1-en-2-yl)-1H-benzo[d]imidazole]: the IC50 at NsdUTPase (setting [5]) is greater than 20 µM. The MIC in series [2] came out at 4 mg/L (≈ 14.6 µM); in series [3] it was 8 mg/L (≈ 29.2 µM).
With “1-Allyl-6-fluoro-5-methyl-2-(6-phenoxypyridin-3-yl)-1H-benzo[d]imidazole [12i]”, the IC50 on NsdUTPase (setting [5]) turned out to be 7.84 µM. Also, the “MIC N. salmonicida” value in series [2] worked out at 4 mg/L. The “MIC N. seriolae” value in series [3] is on record as 4 mg/L.
As for `C=CCn1c(/C=C/c2ccccc2)nc2cc(C(=O)c3ccccc3)ccc21` [4h, (E)-(1-Allyl-2-styryl-1H-benzo[d]imidazol-5-yl)(phenyl)methanone], the half-inhibitory concentration (IC50) at NsdUTPase (setting [5]) came to 9.62 µM. The MIC in series [2] and in series [3] was 8 mg/L (≈ 22 µM) in each case.
Take `C=CCn1c(-c2ccc(Oc3ccccc3)nc2)nc2cc(C(F)(F)F)ccc21` [12h, 1-Allyl-2-(6-phenoxypyridin-3-yl)-5-(trifluoromethyl)-1H-benzo[d]imidazole]: the half-inhibitory concentration (IC50) at NsdUTPase (setting [5]) is greater than 20 µM. In addition, the values for the MIC in series [2] and in series [3] were 32 mg/L (≈ 80.9 µM) and greater than 50 mg/L, respectively.
Taken in the same sequence, the figures for `C=CCn1c(-c2ccc(Oc3ccccc3)cc2)nc2cc(C(=O)c3ccccc3)ccc21` [12c, (1-Allyl-2-(4-phenoxyphenyl)-1H-benzo[d]imidazol-5-yl)(phenyl)methanone] were 15.4 µM, 8 mg/L (≈ 18.6 µM) and 16 mg/L (≈ 37.2 µM).
The like results for `C=CCn1c(-c2ccc(Oc3ccccc3)cc2)nc2cc(C)c(C)cc21` [12d, 1-Allyl-5,6-dimethyl-2-(4-phenoxyphenyl)-1H-benzo[d]imidazole] were, in that order, 3.71 µM, 4 mg/L (≈ 11.3 µM) and 8 mg/L (≈ 22.6 µM).
The like results for `C=CCn1c(/C=C/c2ccccc2)nc2c(C)cccc21` [4d, (E)-1-Allyl-4-methyl-2-styryl-1H-benzo[d]imidazole] were, in that order, greater than 20 µM, 16 mg/L (≈ 58.3 µM) and 16 mg/L (≈ 58.3 µM).
Consider `C=CCn1c(/C=C/c2ccccc2)nc2cc(C#N)ccc21` [4e, (E)-1-Allyl-2-styryl-1H-benzo[d]imidazole-5-carbonitrile], for which the IC50 at NsdUTPase (setting [5]) was greater than 20 µM. Further, the MIC in series [2] was 16 mg/L (≈ 56.1 µM); in series [3] it was greater than 50 mg/L.

A word on the Kd: it is the constant that tells how readily two partners part at equilibrium. High values mean a looser complex, low ones a tighter complex. For orientation: viability means a read-out of living cells in per cent, often relative to untreated cells. A word on the IC50: it is the concentration at which inhibition is half-maximal. A word on the MIC: it is the smallest concentration in the dilution series that meets the test's criterion for growth inhibition.
